The numbers were not newly measured in patent US20020147153A1, “Nutritional supplement to alleviate symptoms associated with reduced levels of serotonin” (Functional Foods, Inc., priority 2001, published 2002), which cites them from elsewhere.

For data set [1] the following is noted: area under glycemic response curve, 2-hour period after 50 g carbohydrate, relative to white bread or glucose standard.

Take `Cn1c(=O)c2c(ncn2C)n(C)c1=O` [Caffeine]: the “time to increased mental alertness” value (safe and rapid manner) is recorded as “approximately 30 minutes”. For the same compound, the “time of maximum effect” value (then almost entirely excreted) is 2 to 4.5 h.

Turning to `O=C(CO)[C@@H](O)[C@H](O)[C@H](O)CO` [Fructose], the “glycemic index (GI)” value in data set [1] is listed as 32.
